The term pIC50 denotes −log10 of the IC50, conventionally taken in molar units.

pIC50: −log10 of the molar value.

The target in this assay is T1, human KCNK13 (Homo sapiens, UniProt Q9HB14).
T1 construct: expressed in transfected cells
T1 sequence (Q9HB14 1-408): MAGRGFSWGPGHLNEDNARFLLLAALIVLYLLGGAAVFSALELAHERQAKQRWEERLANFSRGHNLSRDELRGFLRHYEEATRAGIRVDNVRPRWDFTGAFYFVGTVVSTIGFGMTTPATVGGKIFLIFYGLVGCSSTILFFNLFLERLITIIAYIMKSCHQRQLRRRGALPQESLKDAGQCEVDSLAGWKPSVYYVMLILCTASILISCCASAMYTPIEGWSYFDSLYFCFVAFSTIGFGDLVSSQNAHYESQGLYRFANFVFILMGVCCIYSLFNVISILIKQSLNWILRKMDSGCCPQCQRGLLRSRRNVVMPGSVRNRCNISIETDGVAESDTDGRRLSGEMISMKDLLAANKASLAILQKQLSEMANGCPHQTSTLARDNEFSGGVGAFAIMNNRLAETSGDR
Description: KCNK13 antagonist activity, thallium (Tl+) flux FLIPR assay. It counts as cell-based. Conditions: HEK 293 cells stably expressing human KCNK13; Tl+ sensitive dye, FLIPR; compounds 15 minutes prior to thallium sulfate; 10 point half log curves from 10 PM; read-out: hKCNK13 IC50. The method, then:
KCNK13 antagonist activity was determined by measuring changes in intracellular Thallium (Tl^+) concentrations using a Tl^+ sensitive fluorescent dye. The changes in fluorescent signal were monitored by Fluorescent Imaging Plate Reader (FLIPR™) technology available from Molecular Devices, LLC, US. KCNK13 mediated increases in intracellular Tl+concentration were readily detected by addition of a thallium sulfate stimulus. 24 hours prior to the assay, human embryonic kidney 293 cells (HEK 293 cells) stably expressing human KCNK13 were seeded in cell culture medium in PDL coated black, clear-bottom 384-well plates (commercially available from Corning Inc., 356663) and grown overnight at 37° C., 5% CO2. On the day of the assay, cell culture media was removed and cells were loaded with potassium dye (commercially sold by Molecular Devices, LLC, US, R8222) for 1 hour at room temperature in the dark. Test compounds (at 10 point half log concentration response curves from […]) were added to cells for 15 minutes prior to the addition of thallium sulfate to all wells. The IC50 values were determined from ten point concentration response curves. Curves were generated using the average of two wells for each data point.

In the case of `Cc1cccnc1Cn1c(-c2nonc2C)nc2ccccc21` [Example 69, 3-methyl-4-[1-[(3-methylpyridin-2-yl)methyl]benzimidazol-2-yl]-1,2,5-oxadiazole], the pIC50 is more than 6.70.

With `Nc1nonc1-c1nc2c(F)c(F)ccc2n1Cc1cccnn1` (single isomer, unassigned) [Example 163, 4-(4,5-difluoro-1-(pyridazin-3-ylmethyl)-benzimidazol-2-yl)-1,2,5-oxadiazol-3-amine], the pIC50 is more than 6.70. With `Fc1cccc2nc(-c3cnns3)n(Cc3cccnc3)c12` [Example 68, 5-[7-fluoro-1-(pyridin-3-ylmethyl)benzimidazol-2-yl]-1,2,3-thiadiazole] the figure was more than 6.70. In the case of `N#Cc1cnc(Cn2c(-c3nonc3N)nc3c(F)cccc32)cn1` [Example 36, 5-[[2-(4-amino-1,2,5-oxadiazol-3-yl)-4-fluoro-benzimidazol-1-yl]methyl]pyrazine-2-carbonitrile] it was more than 7.00. On to `Cc1ncc(Cn2c(-c3nonc3C)nc3ccccc32)cn1` [Example 64, 3-methyl-4-[1-[(2-methylpyrimidin-5-yl)methyl]benzimidazol-2-yl]-1,2,5-oxadiazole], for which the pIC50 was more than 6.70. With `Nc1nonc1-c1nc2cc(Br)ccc2n1Cc1cccnc1` [Example 33, 4-[5-bromo-1-(pyridin-3-ylmethyl)benzimidazol-2-yl]-1,2,5-oxadiazol-3-amine] the figure was more than 7.30. In the case of `Nc1nsnc1-c1nc2cccc(F)c2n1Cc1cccnn1` (single isomer, unassigned) [Example 156, 4-(7-fluoro-1-(pyridazin-3-ylmethyl)-benzimidazol-2-yl)-1,2,5-thiadiazol-3-amine] it was more than 7.30; in that of `Cc1nonc1-c1nc2cccc(Cl)c2n1Cc1ccc(C#N)nc1` (single isomer, unassigned) [Example 62, 5-[[7-chloro-2-(4-methyl-1,2,5-oxadiazol-3-yl)benzimidazol-1-yl]methyl]pyridine-2-carbonitrile], more than 6.70. With `[2H]C([2H])(c1cccnc1)n1c(-c2nonc2C)nc2c(F)cccc21` (single isomer, unassigned) [Example 30, 3-[1-[dideuterio(pyridin-3-yl)methyl]-4-fluoro-benzimidazol-2-yl]-4-methyl-1,2,5-oxadiazole] the figure was more than 7.30; with `Cc1nonc1-c1nc2cccnc2n1Cc1ccc(C(F)(F)F)nc1` [Example 17, 3-methyl-4-[3-[[6-(trifluoromethyl)pyridin-3-yl]methyl]imidazo[4,5-b]pyridin-2-yl]-1,2,5-oxadiazole], more than 6.30.

Regarding `Cc1nonc1-c1nc2ccc(F)c(F)c2n1Cc1cnc(C#N)nc1` [Example 1, 5-[[6,7-difluoro-2-(4-methyl-1,2,5-oxadiazol-3-yl)benzimidazol-1-yl]methyl]pyrimidine-2-carbonitrile], the pIC50 was more than 7.00. With `Cc1snnc1-c1nc2ccccc2n1Cc1cccnc1` [Example 102, 5-methyl-4-[1-(pyridin-3-ylmethyl)benzimidazol-2-yl]-1,2,3-thiadiazole] the figure was more than 6.70.

`Cc1nsnc1-c1nc2c(F)cccc2n1Cc1cccnn1` [Example 140, 3-(4-fluoro-1-(pyridazin-3-ylmethyl)-benzimidazol-2-yl)-4-methyl-1,2,5-thiadiazole]: the pIC50 was more than 6.30.

On to `Cc1nonc1-c1nc2ccc(F)c(F)c2n1Cc1cccnn1` (single isomer, unassigned) [Example 170, 3-(6,7-difluoro-1-(pyridazin-3-ylmethyl)-benzimidazol-2-yl)-4-methyl-1,2,5-oxadiazole], for which the pIC50 was more than 7.00. In the case of `C=Cc1nsnc1-c1nc2ccccc2n1Cc1cccnc1` [Example 89, 3-[1-(pyridin-3-ylmethyl)benzimidazol-2-yl]-4-vinyl-1,2,5-thiadiazole] it was more than 7.30; in that of `Cc1nonc1-c1nc2ccccc2n1Cc1ccc(O)nc1` [Example 54, 5-[[2-(4-methyl-1,2,5-oxadiazol-3-yl)benzimidazol-1-yl]methyl]pyridin-2-ol], more than 6.30; in that of `Nc1nonc1-c1nc2cc(F)cnc2n1Cc1cncnc1` [Example 12, 4-[6-fluoro-3-(pyrimidin-5-ylmethyl)imidazo[4,5-b]pyridin-2-yl]-1,2,5-oxadiazol-3-amine], more than 6.70. In the case of `Cc1nonc1-c1nc2c(F)cccc2n1Cc1cncnc1` [Example 9, 3-[4-fluoro-1-(pyrimidin-5-ylmethyl)benzimidazol-2-yl]-4-methyl-1,2,5-oxadiazole] it was more than 7.00.

As to `Cc1nonc1-c1nc2ccc(F)c(F)c2n1Cc1cccnc1` [Example 56, 3-[6,7-difluoro-1-(pyridin-3-ylmethyl)benzimidazol-2-yl]-4-methyl-1,2,5-oxadiazole], the pIC50 is more than 7.00. With `Cc1cnoc1-c1nc2ccccc2n1Cc1cccnc1` [Example 130, 4-methyl-5-[1-(pyridin-3-ylmethyl)benzimidazol-2-yl]isoxazole] the figure was more than 7.00. With `COc1ccc(Cn2c(-c3nonc3C)nc3cccc(F)c32)cn1` [Example 43, 3-[7-fluoro-1-[(6-methoxypyridin-3-yl)methyl]benzimidazol-2-yl]-4-methyl-1,2,5-oxadiazole] the figure was more than 6.00. In the case of `COc1ccc(Cn2c(-c3nonc3C)nc3ccccc32)cn1` [Example 53, 3-[1-[(6-methoxypyridin-3-yl)methyl]benzimidazol-2-yl]-4-methyl-1,2,5-oxadiazole], the pIC50 was more than 7.00. With `CNc1nsnc1-c1nc2cccc(F)c2n1Cc1cccnn1` [Example 143, 4-(7-fluoro-1-(pyridazin-3-ylmethyl)-benzimidazol-2-yl)-N-methyl-1,2,5-thiadiazol-3-amine] the figure was more than 6.70.

Turning to `Cc1nonc1-c1nc2ccccc2n1Cc1ncccc1F` [Example 82, 3-[1-[(3-fluoropyridin-2-yl)methyl]benzimidazol-2-yl]-4-methyl-1,2,5-oxadiazole], the pIC50 is more than 6.00. In the case of `Nc1nonc1-c1nc2cc(F)ccc2n1Cc1ccncc1` [Example 92, 4-[5-fluoro-1-(pyridin-4-ylmethyl)benzimidazol-2-yl]-1,2,5-oxadiazol-3-amine] it was more than 7.30; in that of `Cc1nonc1-c1nc2ccc(F)cc2n1Cc1ccc(C#N)nc1` [Example 55, 5-[[6-fluoro-2-(4-methyl-1,2,5-oxadiazol-3-yl)benzimidazol-1-yl]methyl]pyridine-2-carbonitrile], more than 7.00.

Take `CNS(=O)(=O)c1ccc(Cn2c(-c3nonc3C)nc3ccccc32)cn1` [Example 164, N-methyl-5-((2-(4-methyl-1,2,5-oxadiazol-3-yl)-benzimidazol-1-yl)methyl)pyridine-2-sulfonamide]: the pIC50 is more than 6.00. In the case of `Cc1nonc1-c1nc2c(F)cccc2n1Cc1ccc(C#N)nn1` [Example 47, 6-[[4-fluoro-2-(4-methyl-1,2,5-oxadiazol-3-yl)benzimidazol-1-yl]methyl]pyridazine-3-carbonitrile] it was more than 6.70; in that of `Nc1nonc1-c1nc2ccccc2n1Cc1ccnc(C(F)(F)F)c1` [Example 94, 4-[1-[[2-(trifluoromethyl)pyridin-4-yl]methyl]benzimidazol-2-yl]-1,2,5-oxadiazol-3-amine], more than 7.00.

For `Cc1nonc1-c1nc2cccc(F)c2n1Cc1cccnc1` (single isomer, unassigned) [Example 122, 3-[7-fluoro-1-(pyridin-3-ylmethyl)benzimidazol-2-yl]-4-methyl-1,2,5-oxadiazole], the pIC50 was more than 7.30. With `N#Cc1ncc(Cn2c(-c3nonc3N)nc3cccc(F)c32)cn1` (single isomer, unassigned) [Example 25, 5-[[2-(4-amino-1,2,5-oxadiazol-3-yl)-7-fluoro-benzimidazol-1-yl]methyl]pyrimidine-2-carbonitrile] the figure was more than 7.30; with `Nc1nonc1-c1nc2ncc(F)cc2n1Cc1cncnc1` [Example 160, 4-(6-fluoro-1-(pyrimidin-5-ylmethyl)-1H-imidazo[4,5-b]pyridin-2-yl)-1,2,5-oxadiazol-3-amine], more than 6.30; with `Nc1nonc1-c1nc2ccccc2n1Cc1cncc(C(F)(F)F)c1` [Example 95, 4-[1-[[5-(trifluoromethyl)pyridin-3-yl]methyl]benzimidazol-2-yl]-1,2,5-oxadiazol-3-amine], more than 7.00.

In the case of `Nc1nonc1-c1nc2c(F)cc(F)cc2n1Cc1cccnn1` [Example 142, 4-(4,6-difluoro-1-(pyridazin-3-ylmethyl)-benzimidazol-2-yl)-1,2,5-oxadiazol-3-amine], the pIC50 was more than 6.70. As for `COc1cc(Cn2c(-c3nonc3N)nc3ccccc32)ccn1` [Example 93, 4-[1-[(2-methoxypyridin-4-yl)methyl]benzimidazol-2-yl]-1,2,5-oxadiazol-3-amine], the pIC50 is more than 7.30.

These data come from US20240158385A1, “NOVEL COMPOUNDS” (Cerevance, Inc., priority 2021, published 2024).
